Measured values taken from US11241402B2, “Methods of treating liver fibrosis by administering 3-bromopyruvate” (The Johns Hopkins University, priority 2015, dated 2022).
Entries after “also recorded” stand apart in the source; their conditions may differ.

Key:
[1] = test system: human primary hepatocytes; experiment: Morphology and cell viability of human primary hepatocytes at the metronomic dose; format: cell-based
Experimental: (§1) isolated and cultured as described previously (Anania et al., 1996). Human primary hepatocytes were obtained from Invitrogen and cultured in William's medium (without phenol red) along with plating and maintenance supplements.
(§2) To analyze the effect of 3-BrPA on activated-LX-2 cells, the principle of metronomic therapy, a repeated but low, nonlethal dose of 3-BrPA ([…]) was adopted. A known number of cells were plated in 6-well plates, 10 cm petri dishes or chamber slides as required and the culture media was replaced with fresh culture media containing the drug(s) on alternative days. The cells were treated for a period of 13 days for immunofluorescence studies and 6 days for all other studies including biochemical analysis. Monotherapy involved treating the cells with 3-BrPA alone or AICAR (0.5 mM) in DMEM with 2.5% FBS. The concentration of AICAR was chosen based on the prior reports (Lim et al., 2012). Combination therapy involved using half of the dose used for the monotherapy of AICAR and 3-BrPA.

activated-LX-2 cells = experiment: Determination of nontoxic maximum tolerated dose (cell viability, Trypan-blue exclusion or intracellular ATP); format: cell-based, human; details: maximum dose allowing more than 50% survival; 5-50 μM tested for 24, 48 and 72 hours
Experimental: To determine the nonlethal, maximum tolerated dose (MTD) of 3-BrPA for activated-LX-2 cells, the cell viability was assessed using either Trypan-blue exclusion or quantification of intracellular ATP level. The later was performed using the Cell-Titer Glo Assay kit (Promega Corp., Madison, Wis.) and the FLUOstar Omega plate reader (BMG Labtech, UK). In brief, cells plated in 96-well flatbottomed opaque plates were treated with different concentrations of 3-BrPA (5 μM, 10 μM, 25 μM and 50 μM) for 24, 48 and 72 hours followed by the quantification of intracellular ATP. The maximum dose of 3-BrPA that allowed more than 50% survival (a concentration <IC50) was selected for further experiments.

activated LX-2 cells [2] = experiment: Metronomic therapy of activated-LX-2 cells: morphology / phenotype; format: cell-based, human; details: for change in morphology / phenotype of aLX-2 cells: monotherapy, metronomic: 3-BrPA 25 μM or AICAR 0.5 mM
Text: LX-2, a human stellate cell line, was a gift of Dr. Scott L. Friedman from the Mount Sinai School of Medicine (New York, N.Y., USA). The LX-2 cells when cultured on plastic are active in fibrogenesis (Gaca et al., 2003), and these activated LX-2 cells were used in most experiments. De-activated (quiescent) LX-2 cells prepared by culturing the LX-2 cells on Matrigel (Gaca et al., 2003; Sohara et al., 2002; Troeger et al., 2012) were used as controls. The activated and de-activated LX-2 cells were then cultured in Dulbecco's Modified Eagle's Medium (DMEM) containing 10% FBS, 0.1% antibiotic (Penicillin-Streptomycin) and 0.1% Fungizone on plastic as described previously (Tang et al., 2003). Rat hepatic stellate cells were
as §2

[3] = test system: rat hepatic stellate cells; experiment: Fibrotic markers in rat hepatic stellate cells (confocal α-SMA, MMP-9 immunoblot); format: cell-based
Text: as §1
The level of MMP activity in the conditioned medium of control and treated LX-2 cells and/or rat HSCs was quantified by gelatin zymography. In brief, upon the completion of drug treatment protocol, media from both control and treated cells were removed, cells were rinsed with PBS and replaced with serum-free DMEM media and cultured overnight at 37° C. prior to the collection of media containing secreted proteins for further analysis. The media thus collected were concentrated using a 3000 Da centrifugal filter (Amicon Inc., Pineville, N.C., USA) at 2500 rpm for 30 minutes at 4° C. and then stored at −80° C. until further analysis. Protein (˜10 μg) samples from the conditioned media of control and treated cells were subjected to zymography as described (Kunjithapatham et al., 2014). The MMP activity was visualized as clear bands. The identity of the MMP associated with zymogram signal (activity) was verified by immunoblot analysis.

activated LX-2 cells [4] = experiment: Collagen staining (trichrome) and collagen mRNA by qRT-PCR; format: cell-based, human; details: aLX-2 cells
Experimental: Gene expression analysis was performed by using qRT-PCR with a sequence detection system (ABI 7900HT; Applied Biosystems, Bedford, Mass., USA). The total RNA was extracted and the cDNA thus synthesized were subjected to qRT-PCR analysis using SYBR Green PCR Kit (Applied Biosystems) for genes associated with invasiveness and motility like Vimentin (VIM), Cadherin-12 (CDH12), Snail (SNAI1), Transgelin (TGN) (31-33) and TaqMan PCR Kit for Coll1α (Mm 00801666_g1). The primers used for respective gene amplification were synthesized by RealTimePrimers.com (Elkins Park, Pa., USA) or Life Technologies (Coll1α): […]
Tissue sections were deparaffinized in xylene followed by rehydration through graded series of alcohol followed by staining for collagen using Masson's Trichrome stain (Sigma Aldrich, St. Louis, Mo.) or Sirius Red stain (PolySciences. Inc Warrington, Pa.). For in vitro studies, the LX-2 cells were grown in chamber slides containing appropriate growth medium. They were fixed with 4% formaldehyde for 10 minutes, rapidly rehydrated with Phosphate-buffered saline (PBS), following which, the staining was performed.

activated LX-2 cells [5] = experiment: Gelatin zymography for MMP activity in conditioned medium, verified by immunoblot; format: cell-based, human; details: aLX-2 cells, zymogram and immunoblots
Experimental: as §2
The level of MMP activity in the conditioned medium of control and treated LX-2 cells and/or rat HSCs was quantified by gelatin zymography. In brief, upon the completion of drug treatment protocol, media from both control and treated cells were removed, cells were rinsed with PBS and replaced with serum-free DMEM media and cultured overnight at 37° C. prior to the collection of media containing secreted proteins for further analysis. […]

activated LX-2 cells [6] = experiment: Immunofluorescence / immunoblot of profibrogenic markers (α-SMA, CK-18); format: cell-based, human; details: aLX-2 cells
Experimental: as §2
LX-2 cells were grown in chamber slides in the same media used for culture. […]
For western blotting, control and treated cells were washed in PBS, lysed in RIPA lysis buffer (Sigma-Aldrich) with a protease inhibitor cocktail and a phosphatase inhibitor cocktails (both from Sigma-Aldrich) at 4° C. using a dounce homogenizer. […] The clear supernatants were collected and the protein concentrations were analyzed using a 2-D Quant protein assay Kit (GE Healthcare) as described (Ganapathy-Kanniappan et al., 2009a). […]

activated LX-2 cells [7] = experiment: Energy metabolism markers (immunofluorescence, immunoblot, lactate secretion); format: cell-based, human; details: aLX-2 cells
Experimental: as §2
LX-2 cells were grown in chamber slides in the same media used for culture. They were fixed with 4% formaldehyde for 10 minutes, rapidly rehydrated with Phosphate-buffered saline (PBS) and permeabilized with a 0.20% Triton X-100 solution in PBS for imaging of MCT-1, MCT-4 and ATPSE. The cells were incubated with primary antibodies in PBS for 1 hour at room temperature in a humidified chamber. They were then washed and incubated at room temperature with secondary antibody labeled with Texas Red
For western blotting, control and treated cells were washed in PBS, lysed in RIPA lysis buffer (Sigma-Aldrich) with a protease inhibitor cocktail and a phosphatase inhibitor cocktails (both from Sigma-Aldrich) at 4° C. using a dounce homogenizer. The lysates were centrifuged at 12,000×g for 15 min at 4° C. to remove any cell debris. The clear supernatants were collected and the protein concentrations were analyzed using a 2-D Quant protein assay Kit (GE Healthcare) as described (Ganapathy-Kanniappan et al., 2009a). In brief, protein samples were resolved on a 4-12% Bis-Tris gel by electrophoresis with MOPS buffer or via 12% Bis-Tris gel electrophoresis with MES running buffer (for low molecular weight targets) and blotted onto PVDF membranes (BioRad, Hercules, Calif., USA) followed by immunoblotting with specific antibodies. Immune complexes were visualized by ECL-detection kit (GE Health Care).

Structure (SMILES): O=C(O)C(=O)CBr [3-BrPA, 3-bromopyruvate]
- toxicity to mouse hepatocytes (mouse hepatocytes): not toxic
- sensitivity / cell viability / toxicity, human primary hepatocytes ([1]; 3-BrPA 25 μM, in vitro): not sensitive; also recorded: not toxic; also recorded: remained unaffected
- morphological change of human primary hepatocytes ([1]; same metronomic dose (25 μM)): did not under go any morphological change
- MTD (nonlethal, maximum tolerated dose) in aLX-2 cells (activated-LX-2 cells): 25 µM
- stability of phenotypic changes after withdrawal of the drug (activated LX-2 cells [2]; aLX-2 cells, 6 days post-treatment): stable, even after withdrawal of the drug
- change in morphology of aLX-2 cells in the presence of AICAR (activated LX-2 cells [2]; combination of 3-BrPA and AICAR, half of the monotherapy doses): promoted the changes even in the presence of AICAR
- change in morphology / phenotype of aLX-2 cells (activated LX-2 cells [2]): induced changes in phenotype including an elongated, spindle-shaped morphology
- α-SMA in rat hepatic stellate cells ([3]; confocal microscopic images): decrease
- secretion of MMP-9 in rat hepatic stellate cells ([3]; immunoblot): increase
- α1 (I) collagen mRNA (activated LX-2 cells [4]): decreased
- collagen (trichrome staining) (activated LX-2 cells [4]; text says liver collagen): decreased
- secretion of MMPs (MMP-2, MMP-9) (activated LX-2 cells [5]): elevated
- level of CK-18 (activated LX-2 cells [6]; immunofluorescence): prominent decrease
- level of α-SMA (activated LX-2 cells [6]; immunofluorescence and immunoblot): reduced
- expression level of lactate transporter MCT-4 (activated LX-2 cells [7]): increased
- expression of ATPSE (F1-F0 ATPase) (activated LX-2 cells [7]): significantly downregulated
- expression of MCT-1 (activated LX-2 cells [7]): unaffected
- level of lactate secretion (activated LX-2 cells [7]): increased
- expression level of lactate dehydrogenase (LDH) (activated LX-2 cells [7]; immunoblot): increased

Structure (SMILES): NC(=O)c1ncn([C@@H]2O[C@H](CO)[C@@H](O)[C@H]2O)c1N [AICAR, reference compound]
- change in morphology / phenotype of aLX-2 cells (activated LX-2 cells [2]): did not induce any change in morphology
